In patent US20240335490A1, “COMPOSITION FOR PREVENTING OR AMELIORATING LOCOMOTIVE SYNDROME” (DIC Corporation, priority 2021, published 2024):

Tests used:
[1] = tested on: male and female subjects who feel a decline in mobility; experiment: Joint pain reducing effect questionnaire (0 to 10 scale, pain felt in walking); assay type: in vivo, human; conditions: conclusion from the results of Table 1
Experimental: (§1) Ingredients were mixed at proportions shown in Table 1 below and subjected to tablet molding to produce tableted products in Examples 1 to 3 and Comparative Examples 1 and 2 in the present invention. As the blended ingredients, commercially available products were used. In order to uniform appearance, Blue No. 2 was added to adjust the color. In each of Examples and Comparative Examples, six tableted products were produced such that the daily intake was 1,800 mg.
(§2) Twenty male and female subjects who feel a decline in mobility in their 40s to 70s were divided into five groups of four subjects each. In each group, two tablets in each of Examples 1, 2, and 3 and Comparative Examples 1 and 2 were taken three times a day in the morning, noon, and evening for four weeks. Two weeks and four weeks after the initiation of the test, the following questionnaires were carried out.
An equal-interval scale of 0 to 10 was prepared, and a score of 5 that is the middle means before the initiation of the test or no change, a score closer to 0 means deterioration, and a score closer to 10 means amelioration. The subjects were made to plot the experience evaluation of the joint pain reducing effect in which the subjects felt in walking. Scores plotted by the subjects were considered to be test evaluation.

[2] = tested on: male and female subjects who feel a decline in mobility; experiment: Mobility ameliorating effect questionnaire (0 to 10 scale, ease of walking); assay type: in vivo, human; conditions: conclusion from the results of Table 1
Experimental: as §1, §2
An equal-interval scale of 0 to 10 was prepared, and a score of 5 that is the middle means no change, a score closer to 0 means that walking is difficult, and a score closer to 10 means that walking is easy. The subjects were made to plot the experience evaluation. Scores plotted by the subjects were considered to be test evaluation.

Substance: phycocyanin
- effect on the joint (conclusion in words) [1]: recognized to exert the effect on the joint
- mobility ameliorating effect (conclusion in words) [2]: recognized to exert
